# Assay results taken from ChEMBL document CHEMBL4342448, “Antcamphorols A-K, Cytotoxic and ROS Scavenging Triterpenoids from Antrodia camphorata” (J Nat Prod, 2020).
# Legend:
# MCF7 = assay: Cytotoxicity against human MCF7 cells incubated for 24 hrs by MTT assay; assay type: functional, cell-based; details: MCF7, 24 h
# HUVEC [1] = assay: Induction of ROS scavenging activity in HUVEC assessed as reduction in high glucose-induced intracellular ROS level at 5 uM incubated for 6 hrs by DCFH-DA/Hoechst 33342 staining based assay relative to control; assay type: functional, Homo sapiens; parameters: scale not given: the % may be the effect or the level left
# U-251 = assay: Cytotoxicity against human U251 cells incubated for 24 hrs by MTT assay; assay type: functional, cell-based; details: U-251, 24 h
# SW480 = assay: Cytotoxicity against human SW480 cells incubated for 24 hrs by MTT assay; assay type: functional, cell-based; details: SW480, 24 h
# L02 = assay: Cytotoxicity against human L02 cells incubated for 24 hrs by MTT assay; assay type: cell-based; details: l02, 24 h
# HUVEC [2] = assay: Induction of ROS scavenging activity in HUVEC assessed as reduction in high glucose-induced intracellular ROS level at 20 uM incubated for 6 hrs by DCFH-DA/Hoechst 33342 staining based assay relative to control; assay type: functional, Homo sapiens; parameters: scale not given: the % may be the effect or the level left
Structure (SMILES),IC50 (MCF7),Activity (HUVEC [1]),IC50 (U-251),IC50 (SW480),Activity (L02),Activity (HUVEC [2])
CCc1c2c(nc3ccc(OC(=O)N4CCC(N5CCCCC5)CC4)cc13)-c1cc3c(c(=O)n1C2)COC(=O)[C@]3(O)CC [IRINOTECAN],0.8 µM,,,,,
C=C1CC[C@H](O)C/C1=C/C=C1\CCC[C@]2(C)[C@@H]([C@H](C)CCCC(C)C)CC[C@@H]12 [CHOLECALCIFEROL],,65.4%,,,,
C=C(CC[C@@H](C)[C@H]1CC[C@H]2C3=CC[C@H]4[C@H](C)C(=O)CC[C@]4(C)C3=C[C@@H](O)[C@]12C)C(C)C,> 100 µM,,> 100 µM,> 100 µM,Non-Toxic,
C=C(CC[C@@H](C(=O)O)[C@H]1CC[C@@]2(C)C3=C(CC[C@]12C)[C@@]1(C)CC[C@H](O)C(C)(C)[C@@H]1CC3)C(C)C [EBURICOIC ACID],> 100 µM,,> 100 µM,> 100 µM,Non-Toxic,
C=C(CC[C@@H](C(=O)O)[C@H]1CC[C@@]2(C)C3=CC[C@H]4C(C)(C)[C@@H](O)CC[C@]4(C)C3=CC[C@]12C)C(C)C [DEHYDROEBURICOIC ACID],> 100 µM,,> 100 µM,> 100 µM,Non-Toxic,69.8%
CC1=C2C3=C(CC[C@]2(C)[C@@H]([C@H]2CC[C@](CO)(C(C)C)OC2)C1)[C@@]1(C)CC[C@H](O)C(C)(C)[C@@H]1CC3,> 100 µM,,> 100 µM,> 100 µM,Non-Toxic,
C=C(CC[C@@H](C)[C@H]1CC[C@H]2C3=CC[C@H]4[C@H](C)[C@@H](O)CC[C@]4(C)C3=C[C@@H](O)[C@]12C)C(C)C,8.1 µM,,15.6 µM,16.4 µM,Non-Toxic,
C=C(CC[C@@H](C)[C@H]1CC[C@H]2C3=CC[C@H]4[C@H](C)C(=O)CC[C@]4(C)C3=CC[C@]12C)C(C)C,> 100 µM,,> 100 µM,> 100 µM,Non-Toxic,63.9%
C=C(CC[C@@H](C)[C@H]1CC[C@H]2C3=C(C(=O)[C@H](O)[C@]12C)[C@@]1(C)CC[C@@H](O)[C@@H](C)[C@@H]1CC3=O)[C@H](C)C(=O)O,> 100 µM,,> 100 µM,> 100 µM,Non-Toxic,
C=C(CC[C@@H](C(=O)O)[C@H]1C[C@H](O)[C@@]2(C)C3=CC[C@H]4C(C)(C)[C@@H](O)CC[C@]4(C)C3=CC[C@]12C)C(C)C,> 100 µM,,> 100 µM,> 100 µM,Non-Toxic,
C=C(CC[C@@H](C)[C@H]1CC[C@H]2C3=C(C(=O)C[C@]12C)[C@@]1(C)CCC(=O)[C@@H](C)[C@@H]1C[C@H]3O)C(C)C,> 100 µM,,> 100 µM,> 100 µM,Non-Toxic,66.7%
C=C(CC[C@@H](C)[C@H]1CC[C@H]2C3=C(C(=O)C[C@]12C)[C@@]1(C)CCC(=O)[C@@H](C)[C@@H]1C[C@@H]3O)[C@@H](C)C(=O)O,> 100 µM,,> 100 µM,> 100 µM,Non-Toxic,
C=C(CC[C@@H](C)[C@H]1CC[C@H]2C3=C(C(=O)C[C@]12C)[C@@]1(C)CCC(=O)[C@@H](C)[C@@H]1C[C@@H]3O)[C@H](C)C(=O)O,> 100 µM,,> 100 µM,> 100 µM,Non-Toxic,
C=C(CC[C@@H](C)[C@H]1CC[C@H]2C3=C(C(=O)C[C@]12C)[C@@]1(C)CC[C@@H](O)[C@](C)(O)[C@@H]1C[C@@H]3O)[C@@H](C)C(=O)O,> 100 µM,,> 100 µM,> 100 µM,Non-Toxic,
C=C(CC[C@@H](C)[C@H]1CC[C@H]2C3=C(C(=O)C[C@]12C)[C@@]1(C)CC[C@@H](O)[C@H](O)[C@@H]1C[C@@H]3O)[C@H](C)C(=O)O,> 100 µM,,> 100 µM,> 100 µM,Non-Toxic,
C=C(CC[C@@H](C)[C@H]1CC[C@H]2C3=C(C(=O)[C@H](O)[C@]12C)[C@@]1(C)CC[C@@H](O)[C@@H](C)[C@@H]1CC3=O)[C@@H](C)C(=O)O,> 100 µM,,> 100 µM,> 100 µM,Non-Toxic,70.5%
C/C=C(/CO)CC[C@@H](C)[C@H]1CC[C@H]2C3=C(C(=O)C[C@]12C)[C@@]1(C)CC[C@@H](O)[C@](C)(O)[C@@H]1C[C@@H]3O,> 100 µM,,10.4 µM,> 100 µM,Non-Toxic,
Cn1nnc2c(C(N)=O)ncn2c1=O [TEMOZOLOMIDE],,,36.4 µM,,,
C=C(CC[C@@H](C)[C@H]1CC[C@H]2C3=C(C(=O)C[C@]12C)[C@@]1(C)CC[C@@H](O)[C@H](O)[C@@H]1C[C@@H]3O)[C@@H](C)C(=O)O,> 100 µM,,> 100 µM,> 100 µM,Non-Toxic,
C=C(CC[C@@H](C)[C@H]1CC[C@H]2C3=C(C(=O)C[C@]12C)[C@@]1(C)CC[C@@H](O)[C@](C)(O)[C@@H]1C[C@@H]3O)[C@H](C)C(=O)O,> 100 µM,,> 100 µM,> 100 µM,Non-Toxic,
C/C=C(\CO)CC[C@@H](C)[C@H]1CC[C@H]2C3=C(C(=O)C[C@]12C)[C@@]1(C)CC[C@@H](O)[C@](C)(O)[C@@H]1C[C@@H]3O,> 100 µM,,9.2 µM,> 100 µM,Non-Toxic,
C=C(CC[C@@H](C)[C@H]1CC[C@H]2C3=CC[C@H]4[C@H](C)C(=O)CC[C@]4(C)C3=C[C@H](O)[C@]12C)C(C)C,> 100 µM,,> 100 µM,> 100 µM,Non-Toxic,69.9%
C=C(CC[C@@H](C(=O)O)[C@H]1C[C@H](O)[C@@]2(C)C3=C(CC[C@]12C)[C@@]1(C)CC[C@H](O)C(C)(C)[C@@H]1CC3)C(C)C [SULFURENIC ACID],> 100 µM,,> 100 µM,> 100 µM,Non-Toxic,
C=C(CC[C@@H](C)[C@H]1CC[C@@]2(O)C3=C(C(=O)C[C@]12C)[C@@]1(C)CCC(=O)[C@@H](C)[C@@H]1CC3)C(C)C,> 100 µM,,> 100 µM,> 100 µM,Non-Toxic,
